Test results published in patent publication US11780832B2, “Lactivicin compounds, their preparation and use as antibacterial agents” (priority 2021, dated 2023).
Values after ≈ are worked out from the molar mass of the structure shown. Read-outs that look alike come from different tables or passages of the source.

Key:
Assay type in all cases: cell-based
[1] = system: Enterobacter cloacae species complex Elevated AmpC; assay: MIC against Elevated AmpC producing strains, compound alone
Description: (§1) Gram-negative and Gram-positive bacterial strains used during the in vitro minimum inhibitory concentration (MIC) determination were obtained either from the American Type Culture Collection (ATCC) or from clinical specimens. All strains were characterized genotypically and the respective antibiotic resistance markers for each strain were identified.
(§2) Isolates were sub-cultured onto appropriate media and stocked in skim milk at −80° C. Following two subcultures from frozen stock, in vitro antimicrobial susceptibility testing was performed using the Clinical and Laboratory Standards Institute (CLSI) broth microdilution method. Briefly, fresh cultures were suspended in culture media to give a final stock inoculum size of 5×10^7 colony forming units per milliliter of broth (CFU/mL). Test compounds were prepared at a stock solution concentration equal to 128 μg/mL, then diluted to give a final an initial working concentration of 32 μg/mL. 100 μL of the stock solutions were added to the first wells in a 96-well plate and were then diluted using a 2-fold dilution method to give a range of 32-0.025 μg/mL. 100 μL of the bacterial suspensions were then added to the 96-well plates to give a final working inoculum size of 5×10^5 CFU/mL. The final compound concentration range was 16-0.0125 μg/mL. […] MICs for comparator agents were determined using custom-designed, in-house prepared 96-well broth microdilution panels.

[2] = system: Citrobacter freundii species complex Elevated AmpC; assay: as above; details: row r16
Description: as §1, §2

[3] = system: Escherichia coli Elevated AmpC; assay: as above
Description: as §1, §2

[4] = system: Pseudomonas aeruginosa ATCC 27853; assay: MIC, CLSI broth microdilution; details: ATCC27853
Summary of the method: (§3)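 MIC values come from CLSI broth microdilution against clinical and ATCC isolates whose resistance genes had been characterized. Compound dilutions were two-fold, with final concentrations between 16 and 0.0125 μg/mL.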

[5] = system: Enterobacter cloacae species complex NDM-1; assay: MIC, CLSI broth microdilution
Summary of the method: as §3

[6] = system: Klebsiella pneumoniae KPC-2; assay: MIC, CLSI broth microdilution; details: KPC2
Summary of the method: as §3

[7] = system: Klebsiella pneumoniae KPC-3; assay: MIC, CLSI broth microdilution; details: KPC3, KPC-3, read-out: MIC
Summary of the method: as §3

Escherichia coli CMY-2 = assay: MIC, CLSI broth microdilution; details: CMY2
Summary of the method: as §3

[8] = system: Escherichia coli ATCC 25922; assay: MIC, CLSI broth microdilution; details: ATCC25922
Summary of the method: as §3

[9] = system: Klebsiella pneumoniae OXA-163, OXA-1_OXA-30, SHV-1, TEM-1; assay: MIC, CLSI broth microdilution
Summary of the method: (§4)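 The read-out is the minimum inhibitory concentration determined by CLSI broth microdilution. Final compound levels ran from 16 to 0.0125 μg/mL in two-fold steps against about 5×10^5 CFU/mL of genotypically characterized bacteria.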

[10] = system: Serratia marcescens SME-2; assay: MIC, CLSI broth microdilution; details: SME2
Summary of the method: as §3

Escherichia coli SHV-12 = assay: MIC, CLSI broth microdilution; details: SHV12
Summary of the method: as §3

[11] = system: Klebsiella pneumoniae SHV-12; assay: MIC, CLSI broth microdilution; details: SHV12, SHV-12, read-out: MIC
Summary of the method: as §3

[12] = system: Klebsiella oxytoca KPC-2, TEM-1; assay: MIC, CLSI broth microdilution; details: KPC-2, TEM-1, read-out: MIC
Summary of the method: as §3

[13] = system: Citrobacter freundii species complex OXA-181; assay: MIC, CLSI broth microdilution; details: Citrobacter freundii species complex, OXA-181; read-out: MIC
Summary of the method: as §3

[14] = system: Klebsiella aerogenes VIM-1, SHV-12; assay: MIC, CLSI broth microdilution
Summary of the method: as §3

[15] = system: Pseudomonas aeruginosa AmpC overexpressed; assay: MIC, CLSI broth microdilution
Summary of the method: as §4

[16] = system: Serratia marcescens AmpC overexpressed; assay: MIC, CLSI broth microdilution
Summary of the method: as §4

[17] = system: Klebsiella pneumoniae OXA-48, SHV-1; assay: MIC, CLSI broth microdilution
Summary of the method: as §4

[18] = system: Pseudomonas aeruginosa OprD negative; assay: MIC, CLSI broth microdilution
Summary of the method: as §4

[19] = system: Escherichia coli CTX-M-15; assay: MIC, CLSI broth microdilution; details: CTXM15
Summary of the method: as §3

[20] = system: Acinetobacter baumannii ATCC 19606; assay: MIC, CLSI broth microdilution; details: ATCC19606
Summary of the method: as §3

[21] = system: Klebsiella pneumoniae CMY-DHA; assay: Synergistic activity: MIC in the presence of Avibactam; details: row r32, in the presence of Avibactam @ 4 μg/mL
Description: as §2
The same method used to test the activity of the claimed compounds was used to determine their synergistic activity when combined with a β-lactamase inhibitor except that either a fixed concentration or fixed ratio of a β-lactamase inhibitor was added to the 96-well plates prior to adding the bacteria cultures. Synergistic activity was defined as the reduction of MIC of a given compound when tested using the β-lactamase inhibitor versus testing the compound in the absence of a β-lactamase inhibitor.

[22] = system: Proteus mirabilis CMY-DHA; assay: MIC against CMY-DHA producing strains, compound alone; details: row r36
Description: as §1, §2

[23] = system: Klebsiella pneumoniae CMY-DHA; assay: as above; details: row r32
Description: as §1, §2

Escherichia coli CMY-DHA = assay: as above
Description: as §1, §2

With CC(C)(O/N=C(\C(=O)N[C@@H]1C(=O)N2C(C(=O)[O-])=C(C[n+]3ccccc3)CS[C@H]12)c1csc(N)n1)C(=O)O [Ceftazidime, ceftazidime, reference compound] the MIC [1] was 16 µg/mL (≈ 29.3 µM), the MIC ([1]; strain of row r7) was > 32 µg/mL and the MIC ([1]; strain of row r20) was 16 µg/mL (≈ 29.3 µM). The MIC [2] was > 32 µg/mL, the MIC ([3]; strain of row r10) was 8 µg/mL (≈ 14.6 µM) and the MIC ([3]; strain of row r11) was 8 µg/mL (≈ 14.6 µM). The MIC ([3]; strain of row r12) was 8 µg/mL (≈ 14.6 µM), the MIC ([3]; strain of row r13) was 4 µg/mL (≈ 7.32 µM) and the MIC ([3]; strain of row r14) was 16 µg/mL (≈ 29.3 µM). The MIC ([3]; strain of row r15) was 16 µg/mL (≈ 29.3 µM), the MIC [4] was 1 µg/mL (≈ 1.83 µM) and the MIC [5] was > 32 µg/mL. The MIC [6] was > 32 µg/mL, the MIC [7] was > 32 µg/mL and the MIC (Escherichia coli CMY-2) was > 32 µg/mL. For the same compound, the MIC [8] was 0.25 µg/mL (≈ 0.457 µM), the MIC [9] was > 32 µg/mL and the MIC [10] was 0.25 µg/mL (≈ 0.457 µM). For the same compound, the MIC (Escherichia coli SHV-12) was 32 µg/mL (≈ 58.5 µM), the MIC [11] was > 32 µg/mL and the MIC [12] was 1 µg/mL (≈ 1.83 µM). The MIC [13] was 8 µg/mL (≈ 14.6 µM), the MIC [14] was > 32 µg/mL and the MIC [15] was 8 µg/mL (≈ 14.6 µM). For the same compound, the MIC [16] was 0.5 µg/mL (≈ 0.915 µM), the MIC [17] was 0.5 µg/mL (≈ 0.915 µM) and the MIC [18] was 2 µg/mL (≈ 3.66 µM). For the same compound, the MIC [19] was 4 µg/mL (≈ 7.32 µM), the MIC [20] was 8 µg/mL (≈ 14.6 µM) and the MIC [21] was 0.12 µg/mL. The MIC [22] was 16 µg/mL (≈ 29.3 µM), the MIC [23] was 16 µg/mL (≈ 29.3 µM) and the MIC (Escherichia coli CMY-DHA; strain of row r26) was 32 µg/mL (≈ 58.5 µM). The MIC (Escherichia coli CMY-DHA; strain of row r27) was 32 µg/mL (≈ 58.5 µM), the MIC (Escherichia coli CMY-DHA; strain of row r28) was 8 µg/mL (≈ 14.6 µM) and the MIC (Escherichia coli CMY-DHA; strain of row r29) was 32 µg/mL (≈ 58.5 µM). For the same compound, the MIC (Escherichia coli CMY-DHA; strain of row r30) was 4 µg/mL (≈ 7.32 µM), the MIC (Escherichia coli CMY-DHA; strain of row r31) was 32 µg/mL (≈ 58.5 µM) and the MIC (Escherichia coli CMY-DHA; strain of row r34) was > 32 µg/mL. The MIC (Escherichia coli CMY-DHA; strain of row r35) was > 32 µg/mL.
